From patent US9060946B2, “Topical skin care formulations” (priority 2013, dated 2015)

How the values were obtained:
[1] = background; without the whiteness-preserving ingredients; cited from earlier work
skin [2] = assay: Tanning of the skin after topical application; type: in vivo
Excerpt: The tan will appear once it reaches the skin's cellular level whether a person is in the light or in total darkness.
The tanning process will continue, in the sun, in the shade, or total darkness, regardless of the environmental conditions. […] Also, the tan can be maintained for longer periods of time by daily use of a maintenance formula containing 3 wt % CoQ10 and 3 wt % vanillin in a lime emulsion.

skin [3] = conditions: known sunless tanning ingredients; acts on dead skin cells; cited from earlier work

| SMILES | color behaviour in aqueous emulsion products [1] | tanning / color development continues for up to (skin [2]) | how long the tan color lasts (skin [3]) |
| --- | --- | --- | --- |
| COC1=C(OC)C(=O)C(C/C=C(\C)CC/C=C(\C)CC/C=C(\C)CC/C=C(\C)CC/C=C(\C)CC/C=C(\C)CC/C=C(\C)CC/C=C(\C)CC/C=C(\C)CCC=C(C)C)=C(C)C1=O [CoQ10, coenzyme Q10] | degrades the formulation into various shades of orange or brown |  |  |
| COc1cc(C=O)ccc1O [vanillin] | quickly degrades into various shades of brown | up to 24 hours |  |
| O=C(CO)[C@H](O)CO [erythrulose, D-erythrulose] |  |  | only a few days |
